According to ChEMBL document CHEMBL5465560, “Selectivity Literature for EUbOPEN Chemogenomic Library” (2024):

Key:
[1] = target: Death-associated protein kinase 2 (Homo sapiens) (UniProt Q9UIK4); assay: Selectivity interaction (KinomeScan (DiscoverX)) EUB0000229b DAPK2; conditions: at 10 µM
[2] = target: LIM domain kinase 2 (Homo sapiens) (UniProt P53671); assay: Selectivity interaction (KinomeScan (DiscoverX)) EUB0000229b LIMK2; conditions: at 10 µM
[3] = target: T1, Serine/threonine-protein kinase 36 (Homo sapiens) (UniProt Q9NRP7); assay: Selectivity interaction (KinomeScan (DiscoverX)) EUB0000229b STK36; conditions: at 10 µM
T1 sequence (whole entry): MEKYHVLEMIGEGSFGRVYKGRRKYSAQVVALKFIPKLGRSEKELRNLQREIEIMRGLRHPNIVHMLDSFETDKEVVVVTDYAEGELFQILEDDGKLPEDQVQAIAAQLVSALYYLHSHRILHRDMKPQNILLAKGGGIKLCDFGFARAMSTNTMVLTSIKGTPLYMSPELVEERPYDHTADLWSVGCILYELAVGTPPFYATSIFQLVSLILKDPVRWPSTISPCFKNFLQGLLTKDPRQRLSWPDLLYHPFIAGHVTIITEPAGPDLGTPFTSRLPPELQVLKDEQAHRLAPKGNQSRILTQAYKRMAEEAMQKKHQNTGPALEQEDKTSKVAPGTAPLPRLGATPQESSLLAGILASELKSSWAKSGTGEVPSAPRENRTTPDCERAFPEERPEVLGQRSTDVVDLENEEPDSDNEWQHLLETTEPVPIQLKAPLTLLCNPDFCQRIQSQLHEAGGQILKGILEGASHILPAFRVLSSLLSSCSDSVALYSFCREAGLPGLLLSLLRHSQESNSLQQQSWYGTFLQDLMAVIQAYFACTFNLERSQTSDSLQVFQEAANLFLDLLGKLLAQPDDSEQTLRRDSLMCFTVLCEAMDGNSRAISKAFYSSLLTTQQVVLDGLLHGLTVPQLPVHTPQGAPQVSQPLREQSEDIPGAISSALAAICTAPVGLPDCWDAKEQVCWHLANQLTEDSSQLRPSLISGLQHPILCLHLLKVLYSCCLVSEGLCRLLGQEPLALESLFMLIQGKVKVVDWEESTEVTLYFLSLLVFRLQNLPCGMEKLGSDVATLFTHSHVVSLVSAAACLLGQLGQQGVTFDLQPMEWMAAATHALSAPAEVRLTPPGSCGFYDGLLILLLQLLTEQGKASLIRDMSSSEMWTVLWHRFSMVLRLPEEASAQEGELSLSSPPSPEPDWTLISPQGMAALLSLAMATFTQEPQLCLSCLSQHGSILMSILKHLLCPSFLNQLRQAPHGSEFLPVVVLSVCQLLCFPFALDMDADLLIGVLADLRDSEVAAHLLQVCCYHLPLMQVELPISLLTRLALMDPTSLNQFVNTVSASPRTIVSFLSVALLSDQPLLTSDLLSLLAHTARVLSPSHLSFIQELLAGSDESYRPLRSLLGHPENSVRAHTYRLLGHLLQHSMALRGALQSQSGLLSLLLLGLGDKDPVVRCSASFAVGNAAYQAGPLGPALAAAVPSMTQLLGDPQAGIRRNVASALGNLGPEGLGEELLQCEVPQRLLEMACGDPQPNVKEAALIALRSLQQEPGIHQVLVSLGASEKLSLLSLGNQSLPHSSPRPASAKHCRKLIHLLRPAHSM

[4] = test system: Epidermal growth factor receptor (Homo sapiens), P00533 [T790M]; assay: (§1) Selectivity interaction (KinomeScan (DiscoverX)) EUB0001079a EGFR; conditions: at 1 µM
[5] = target: Epidermal growth factor receptor (Homo sapiens, UniProt P00533); assay: as §1; conditions: at 1 µM
[6] = test system: Epidermal growth factor receptor (Homo sapiens), P00533 [L858R,T790M]; assay: as §1; conditions: at 1 µM
[7] = test system: Epidermal growth factor receptor (Homo sapiens), P00533 [G719C]; assay: as §1; conditions: at 1 µM
[8] = test system: Epidermal growth factor receptor (Homo sapiens), P00533 [L861Q]; assay: as §1; conditions: at 1 µM
[9] = test system: Epidermal growth factor receptor (Homo sapiens), P00533 [L858R]; assay: as §1; conditions: at 1 µM
[10] = test system: Epidermal growth factor receptor (Homo sapiens), P00533 [G719S]; assay: as §1; conditions: at 1 µM
Epidermal growth factor receptor (Homo sapiens), P00533 [G719S], sequence (P00533 whole entry G719S): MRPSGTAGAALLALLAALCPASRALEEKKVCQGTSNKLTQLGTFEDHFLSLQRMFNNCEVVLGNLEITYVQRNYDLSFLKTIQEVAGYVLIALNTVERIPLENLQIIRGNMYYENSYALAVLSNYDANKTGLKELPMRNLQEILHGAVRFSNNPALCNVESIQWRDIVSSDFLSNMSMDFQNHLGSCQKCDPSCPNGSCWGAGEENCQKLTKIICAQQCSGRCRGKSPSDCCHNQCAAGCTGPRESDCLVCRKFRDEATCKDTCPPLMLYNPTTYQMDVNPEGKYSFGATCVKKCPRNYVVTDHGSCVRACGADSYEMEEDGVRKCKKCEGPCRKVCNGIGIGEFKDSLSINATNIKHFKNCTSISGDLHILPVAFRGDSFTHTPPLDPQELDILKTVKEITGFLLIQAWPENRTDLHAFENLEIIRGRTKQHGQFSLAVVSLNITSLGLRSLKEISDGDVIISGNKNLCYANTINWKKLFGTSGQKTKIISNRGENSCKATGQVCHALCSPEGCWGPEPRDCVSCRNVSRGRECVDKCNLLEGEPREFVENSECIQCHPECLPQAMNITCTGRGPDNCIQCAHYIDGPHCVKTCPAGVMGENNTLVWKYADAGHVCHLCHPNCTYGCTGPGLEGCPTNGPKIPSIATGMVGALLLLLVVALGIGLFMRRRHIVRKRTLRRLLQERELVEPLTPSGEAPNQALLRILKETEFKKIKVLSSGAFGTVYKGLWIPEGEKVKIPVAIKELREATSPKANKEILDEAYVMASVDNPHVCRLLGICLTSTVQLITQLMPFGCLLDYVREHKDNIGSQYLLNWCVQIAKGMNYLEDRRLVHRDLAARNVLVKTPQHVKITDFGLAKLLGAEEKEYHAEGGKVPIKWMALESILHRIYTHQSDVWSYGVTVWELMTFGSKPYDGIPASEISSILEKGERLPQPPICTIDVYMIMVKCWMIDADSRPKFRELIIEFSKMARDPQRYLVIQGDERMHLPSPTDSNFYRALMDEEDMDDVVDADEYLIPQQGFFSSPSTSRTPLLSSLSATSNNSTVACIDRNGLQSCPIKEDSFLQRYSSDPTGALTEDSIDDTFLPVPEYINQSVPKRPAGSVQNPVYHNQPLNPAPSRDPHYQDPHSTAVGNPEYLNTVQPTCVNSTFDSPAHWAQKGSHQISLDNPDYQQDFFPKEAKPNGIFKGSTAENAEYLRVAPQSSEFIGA

[11] = test system: Epidermal growth factor receptor (Homo sapiens), P00533 [UNDEFINED MUTATION]; assay: as §1; conditions: at 1 µM
[12] = target: Microtubule-associated serine/threonine-protein kinase 2 (Homo sapiens) (UniProt Q6P0Q8); assay: Selectivity interaction (ActivX KiNativ screen (kinase selectivity in THP-1 cell lysates)) EUB0000639a MAST2; assay type: subcellular; conditions: lysate
Microtubule-associated serine/threonine-protein kinase 2 (Homo sapiens), sequence (Q6P0Q8 whole entry, canonical isoform): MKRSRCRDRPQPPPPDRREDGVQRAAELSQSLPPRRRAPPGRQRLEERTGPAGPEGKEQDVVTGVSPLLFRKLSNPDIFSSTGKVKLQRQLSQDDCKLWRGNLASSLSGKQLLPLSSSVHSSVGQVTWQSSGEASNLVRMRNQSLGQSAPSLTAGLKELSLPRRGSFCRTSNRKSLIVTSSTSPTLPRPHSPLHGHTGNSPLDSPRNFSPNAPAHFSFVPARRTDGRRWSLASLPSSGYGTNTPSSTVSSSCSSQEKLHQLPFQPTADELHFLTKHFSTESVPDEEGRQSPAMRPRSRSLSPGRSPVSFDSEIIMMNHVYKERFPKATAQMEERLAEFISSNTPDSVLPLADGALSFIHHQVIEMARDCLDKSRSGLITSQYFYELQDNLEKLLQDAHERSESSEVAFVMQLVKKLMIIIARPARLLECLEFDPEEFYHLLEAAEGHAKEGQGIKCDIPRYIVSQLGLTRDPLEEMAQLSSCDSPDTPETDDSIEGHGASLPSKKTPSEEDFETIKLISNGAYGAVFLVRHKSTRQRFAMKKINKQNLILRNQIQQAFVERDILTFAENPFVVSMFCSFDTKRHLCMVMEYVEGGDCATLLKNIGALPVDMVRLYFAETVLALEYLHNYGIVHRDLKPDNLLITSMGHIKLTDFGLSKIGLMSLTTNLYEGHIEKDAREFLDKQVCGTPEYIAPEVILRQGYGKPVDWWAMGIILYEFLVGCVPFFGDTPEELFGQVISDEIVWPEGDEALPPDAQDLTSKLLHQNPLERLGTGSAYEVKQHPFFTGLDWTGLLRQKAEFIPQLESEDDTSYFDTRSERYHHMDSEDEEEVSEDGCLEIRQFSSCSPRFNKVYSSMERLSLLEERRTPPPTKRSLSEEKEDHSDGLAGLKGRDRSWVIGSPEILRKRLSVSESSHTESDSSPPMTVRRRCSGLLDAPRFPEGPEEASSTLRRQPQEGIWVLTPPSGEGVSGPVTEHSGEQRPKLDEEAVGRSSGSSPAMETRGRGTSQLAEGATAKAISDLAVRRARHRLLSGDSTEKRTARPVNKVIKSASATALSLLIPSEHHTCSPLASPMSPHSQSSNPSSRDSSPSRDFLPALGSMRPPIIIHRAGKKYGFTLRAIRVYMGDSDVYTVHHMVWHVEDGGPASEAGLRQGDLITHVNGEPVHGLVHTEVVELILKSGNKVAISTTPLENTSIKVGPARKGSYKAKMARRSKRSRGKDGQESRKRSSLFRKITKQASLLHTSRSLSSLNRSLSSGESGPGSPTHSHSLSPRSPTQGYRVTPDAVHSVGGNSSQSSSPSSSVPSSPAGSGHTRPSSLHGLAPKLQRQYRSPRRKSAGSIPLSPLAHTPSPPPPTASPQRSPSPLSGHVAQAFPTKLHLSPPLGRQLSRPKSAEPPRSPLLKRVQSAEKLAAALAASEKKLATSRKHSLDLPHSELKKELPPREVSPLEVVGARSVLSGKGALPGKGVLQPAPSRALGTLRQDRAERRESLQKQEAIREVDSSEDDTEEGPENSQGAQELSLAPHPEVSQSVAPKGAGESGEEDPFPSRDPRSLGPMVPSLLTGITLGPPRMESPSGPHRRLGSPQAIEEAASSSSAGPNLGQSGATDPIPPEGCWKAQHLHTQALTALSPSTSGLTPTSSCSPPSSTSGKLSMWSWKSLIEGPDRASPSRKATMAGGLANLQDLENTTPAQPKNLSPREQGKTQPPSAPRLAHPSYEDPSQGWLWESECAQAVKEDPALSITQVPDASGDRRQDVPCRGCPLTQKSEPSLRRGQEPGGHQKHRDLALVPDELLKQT

[13] = target: Phosphatidylinositol 4,5-bisphosphate 3-kinase catalytic subunit beta isoform (Homo sapiens) (UniProt P42338); assay: Selectivity interaction (KinomeScan (DiscoverX)) EUB0000655a PIK3CB; conditions: at 10 µM
Phosphatidylinositol 4,5-bisphosphate 3-kinase catalytic subunit beta isoform (Homo sapiens), sequence (P42338 whole entry, looked up, canonical isoform): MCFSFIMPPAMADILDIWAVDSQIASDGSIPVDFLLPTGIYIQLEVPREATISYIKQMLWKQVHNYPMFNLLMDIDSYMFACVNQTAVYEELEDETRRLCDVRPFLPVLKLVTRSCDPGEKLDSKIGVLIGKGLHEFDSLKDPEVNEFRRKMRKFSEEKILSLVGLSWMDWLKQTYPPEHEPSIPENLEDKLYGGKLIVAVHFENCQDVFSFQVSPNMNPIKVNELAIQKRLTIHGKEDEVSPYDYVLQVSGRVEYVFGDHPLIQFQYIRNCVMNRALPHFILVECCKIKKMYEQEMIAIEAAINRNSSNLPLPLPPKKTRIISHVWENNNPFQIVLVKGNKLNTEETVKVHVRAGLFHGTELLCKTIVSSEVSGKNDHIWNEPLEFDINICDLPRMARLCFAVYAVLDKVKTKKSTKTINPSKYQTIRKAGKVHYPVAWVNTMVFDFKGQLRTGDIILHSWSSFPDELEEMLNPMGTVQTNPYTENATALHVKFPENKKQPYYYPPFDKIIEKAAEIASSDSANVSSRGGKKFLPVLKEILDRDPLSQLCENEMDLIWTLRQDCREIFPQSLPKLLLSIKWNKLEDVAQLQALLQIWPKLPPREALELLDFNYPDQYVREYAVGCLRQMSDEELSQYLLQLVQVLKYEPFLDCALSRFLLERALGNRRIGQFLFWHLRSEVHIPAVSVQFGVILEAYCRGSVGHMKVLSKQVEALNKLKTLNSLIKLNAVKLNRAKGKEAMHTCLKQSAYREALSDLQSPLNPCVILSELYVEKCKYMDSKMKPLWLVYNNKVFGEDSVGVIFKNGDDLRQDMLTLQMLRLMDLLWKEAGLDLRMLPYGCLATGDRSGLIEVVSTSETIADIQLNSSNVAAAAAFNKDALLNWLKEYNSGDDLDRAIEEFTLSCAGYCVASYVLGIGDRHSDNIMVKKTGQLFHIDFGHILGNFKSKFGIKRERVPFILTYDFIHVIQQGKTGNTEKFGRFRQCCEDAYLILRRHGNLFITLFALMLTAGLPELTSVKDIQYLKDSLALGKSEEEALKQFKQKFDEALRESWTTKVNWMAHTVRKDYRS

[14] = target: T2, Ephrin type-B receptor 4 (Homo sapiens) (UniProt P54760); assay: Selectivity interaction (KinomeScan (DiscoverX)) EUB0000655a EPHB4; conditions: at 10 µM
T2 sequence (whole entry): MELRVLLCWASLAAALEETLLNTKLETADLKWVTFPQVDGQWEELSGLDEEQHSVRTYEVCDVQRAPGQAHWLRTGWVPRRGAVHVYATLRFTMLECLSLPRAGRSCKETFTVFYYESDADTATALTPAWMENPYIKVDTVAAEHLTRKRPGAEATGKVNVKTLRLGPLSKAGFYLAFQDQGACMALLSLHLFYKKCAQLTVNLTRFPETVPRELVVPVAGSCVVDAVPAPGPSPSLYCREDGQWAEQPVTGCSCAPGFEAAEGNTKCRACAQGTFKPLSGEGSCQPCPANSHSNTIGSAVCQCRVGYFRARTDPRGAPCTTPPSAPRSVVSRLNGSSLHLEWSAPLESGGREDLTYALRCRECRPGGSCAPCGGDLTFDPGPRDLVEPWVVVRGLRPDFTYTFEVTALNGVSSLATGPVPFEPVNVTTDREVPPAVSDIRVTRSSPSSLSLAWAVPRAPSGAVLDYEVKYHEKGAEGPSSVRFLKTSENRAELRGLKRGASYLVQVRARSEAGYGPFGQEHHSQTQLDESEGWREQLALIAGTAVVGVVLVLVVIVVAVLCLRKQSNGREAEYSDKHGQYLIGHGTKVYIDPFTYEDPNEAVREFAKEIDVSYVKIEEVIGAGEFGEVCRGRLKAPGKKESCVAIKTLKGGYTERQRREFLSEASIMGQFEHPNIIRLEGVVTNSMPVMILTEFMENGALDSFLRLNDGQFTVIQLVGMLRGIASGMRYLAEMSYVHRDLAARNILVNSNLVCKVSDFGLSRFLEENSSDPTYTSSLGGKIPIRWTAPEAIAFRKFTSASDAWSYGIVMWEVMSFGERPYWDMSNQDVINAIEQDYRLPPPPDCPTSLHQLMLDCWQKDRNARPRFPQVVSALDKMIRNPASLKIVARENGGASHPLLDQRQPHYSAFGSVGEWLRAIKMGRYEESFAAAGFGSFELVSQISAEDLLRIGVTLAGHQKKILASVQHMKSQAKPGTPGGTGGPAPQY

Death-associated protein kinase 2 (Homo sapiens), sequence (Q9UIK4 whole entry, looked up, the tested form may be a part): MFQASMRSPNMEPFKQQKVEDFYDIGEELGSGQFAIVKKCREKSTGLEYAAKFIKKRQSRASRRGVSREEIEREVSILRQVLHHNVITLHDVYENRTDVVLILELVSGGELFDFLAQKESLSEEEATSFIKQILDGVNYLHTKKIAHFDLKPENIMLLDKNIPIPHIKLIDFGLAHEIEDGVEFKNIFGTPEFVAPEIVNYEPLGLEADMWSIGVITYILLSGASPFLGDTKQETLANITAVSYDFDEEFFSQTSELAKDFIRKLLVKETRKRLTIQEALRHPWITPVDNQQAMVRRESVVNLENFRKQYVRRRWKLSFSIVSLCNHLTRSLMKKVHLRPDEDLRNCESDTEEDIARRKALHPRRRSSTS
LIM domain kinase 2 (Homo sapiens), sequence (P53671 whole entry, looked up, the tested form may be a part): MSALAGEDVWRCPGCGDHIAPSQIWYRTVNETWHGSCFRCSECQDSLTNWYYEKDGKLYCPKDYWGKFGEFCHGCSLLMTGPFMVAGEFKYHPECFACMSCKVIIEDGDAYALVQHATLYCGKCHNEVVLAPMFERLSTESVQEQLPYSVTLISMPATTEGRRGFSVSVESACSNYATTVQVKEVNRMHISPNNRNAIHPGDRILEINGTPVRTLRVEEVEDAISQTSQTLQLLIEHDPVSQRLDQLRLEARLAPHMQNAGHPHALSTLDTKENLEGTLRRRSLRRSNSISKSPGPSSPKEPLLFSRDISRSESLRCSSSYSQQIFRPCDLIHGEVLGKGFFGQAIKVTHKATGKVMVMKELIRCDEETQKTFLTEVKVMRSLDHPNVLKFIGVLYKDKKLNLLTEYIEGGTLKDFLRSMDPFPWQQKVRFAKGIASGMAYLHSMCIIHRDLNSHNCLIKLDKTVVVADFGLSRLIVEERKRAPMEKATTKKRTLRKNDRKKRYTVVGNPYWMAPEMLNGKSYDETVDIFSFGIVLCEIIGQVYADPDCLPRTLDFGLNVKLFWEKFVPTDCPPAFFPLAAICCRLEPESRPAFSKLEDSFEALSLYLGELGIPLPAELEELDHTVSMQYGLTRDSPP

COc1cc(N(C)c2ccnc3ccc(C(F)(F)F)cc23)cc(OC)c1OC
% binding [1]: 96%
% binding [2]: 93%
% binding [3]: 100%

Nc1cnc(N2CCc3cc(S(=O)(=O)Nc4c(F)cc(Cl)cc4F)cc(N4CCCC4=O)c32)nc1 [TP-020n]
% of control [4]: 88%
% of control [5]: 82%
% of control [6]: 77%
% of control [7]: 100%
% of control [8]: 100%
% of control [9]: 85%
% of control [10]: 75%
% of control [11]: 74%

CC[C@@H]1[C@H](F)C(=O)N[C@@H]1COc1nccc2cc(C(N)=O)c(OC)cc12 [ZIMLOVISERTIB]
% of inhibition ([12]; at 0.01 µM): -0.4%
% of inhibition ([12]; at 0.04 µM): -2.4%
% of inhibition ([12]; at 0.2 µM): -2.5%
% of inhibition ([12]; at 1 µM): -1.4%
% of inhibition ([12]; at 5 µM): -30.3%

CN(C)CCOc1ccc(-c2nc(-c3ccncc3)c(-c3ccc4c(c3)CC/C4=N\O)[nH]2)cc1
% of control [13]: 100%
% of control [14]: 100%
